The values that follow come from patent US20230124720A1, “APPLICATION OF ACRIDINEDIONE COMPOUND IN PREPARATION OF ANTI-DIABETIC DRUGS” (THE FOURTH MILITARY MEDICAL UNIVERSITY, priority 2020, published 2023).

Common to all, as to type: in vivo, rat
Data set [1] deals with STZ-induced T2DM rats. The data set is described as follows: Insulin tolerance test (ITT) in T2DM rats. The protocol: 150 male SD rats, housed in cages in a clean constant temperature (23±2° C.) and humidity (55±10%) animal house, were manually adjusted on a daily 12 h/12 h diurnal light cycle with free access to water. After 3 days of adaptive feeding, 150 rats were randomly divided into normal and model groups. The normal (Con, n=15) group of rats remained on raw chow and the model group (n=135) of rats were given high fat high sugar chow. All rats were fed twice daily and the amount of feed was adjusted as needed to ensure adequate feed. After 8 weeks of group feeding, the model group rats were given an intraperitoneal injection of 25 mg/kg STZ solution with a 12 h fast prior to injection. After injection, feeding was continued as in the original method, blood was taken from the tail vein at 72 h for blood glucose measurement, and rats with fasting blood glucose levels ≥11.1 mmol/L on different days were screened for successful artificial induction of T2DM and administered in groups for the next experiment. 135 rats with successful modeling were randomly divided into 9 groups: […] (2) 0.01 mg/kg ADD-16 administration group (ADD I, n=15): daily administration of 0.01 mg/kg ADD-16 solution by gavage; (3) 0.1 mg/kg ADD-16 administration group (ADD II, n=15): daily administration of a 0.1 mg/kg ADD-16 solution by gavage; (4) 1 mg/kg ADD-16 administration group (ADD III, n=15): daily administration of a 1 mg/kg ADD-16 solution by gavage; (5) 3 mg/kg ADD-16 administration group (ADD IV, n=15): daily administration of a 3 mg/kg ADD-16 solution by gavage; (6) 10 mg/kg ADD-16 administration group (ADD V, n=15): daily administration of a 10 mg/kg ADD-16 solution by gavage; (7) 50 mg/kg ADD-16 administration group (ADD VI, n=15): daily administration of a 50 mg/kg ADD-16 solution by gavage; […] (9) Sitagliptin control group (ST, n=15): daily administration of a 6 mg/kg sitagliptin solution by gavage. […] Relevant indicators of lipid metabolism were measured after the end of the study. […] After the 120 min blood glucose value determination was completed, the diet was resumed. In the test, the condition of the rats was observed, and when abnormalities occurred, the experiment was stopped in time and a glucose solution was given by gavage to prevent death due to hypoglycemia.

The subject of data set [2] is STZ-induced T2DM rats. The data set is described as follows: Oral glucose tolerance test (OGTT) in T2DM rats. The following applies: artificially induced T2DM rats. The procedure: 150 male SD rats, housed in cages in a clean constant temperature (23±2° C.) and humidity (55±10%) animal house, were manually adjusted on a daily 12 h/12 h diurnal light cycle with free access to water. After 3 days of adaptive feeding, 150 rats were randomly divided into normal and model groups. The normal (Con, n=15) group of rats remained on raw chow and the model group (n=135) of rats were given high fat high sugar chow. All rats were fed twice daily and the amount of feed was adjusted as needed to ensure adequate feed. After 8 weeks of group feeding, the model group rats were given an intraperitoneal injection of 25 mg/kg STZ solution with a 12 h fast prior to injection. After injection, feeding was continued as in the original method, blood was taken from the tail vein at 72 h for blood glucose measurement, and rats with fasting blood glucose levels ≥11.1 mmol/L on different days were screened for successful artificial induction of T2DM and administered in groups for the next experiment. 135 rats with successful modeling were randomly divided into 9 groups: […] […] Relevant indicators of lipid metabolism were measured after the end of the study. At the final week of the Oral Glucose Tolerance Test (OGTT) test, each group of rats was fasted from water 16 h after gavage administration and the fasting blood glucose value (as 0 min) was measured for each rat. […]

Data set [3] is described as follows: Tissue distribution kinetics in SD rats (LC-MS/MS). The following applies: gavage 10 mg/kg. The protocol: 40 healthy male SD rats, weighing 200-220 g, were housed adaptively for three days and fasted for 12 h prior to the experiment. All rats were randomly divided into 5 groups, 8 for each group. Each group of rats was gavaged with the ADD-16 solution (10 mg/kg), anesthetized at 10, 30, 60, 240, 480 min after administration, and sacrificed by exsanguination of the abdominal aorta, respectively. Each group of rats was sacrificed by dissection to collect tissues such as heart, liver, spleen, lung, kidney, brain, and islets. After washing the tissue samples with physiological saline to clean surface blood, the tissue samples were blotted with filter paper to dry surface moisture, weighed, and stored at −80° C. The assay was performed by natural thawing at room temperature and the concentration of ADD-16 in each tissue was determined using the LC-MS/MS method.

With `CC1(C)CC(=O)C2=C(C1)NC1=C(C(=O)CC(C)(C)C1)C2c1ccc(OCc2ccc(C(=O)O)cc2)c(Br)c1` [ADD-16], the “decrease of ITT AUC compared to the TD group” value in the data set with STZ-induced T2DM rats [1] (ADD IV group, 3 mg/kg daily by gavage) was 46.5%; in the data set with STZ-induced T2DM rats [1] (ADD V group, 10 mg/kg daily by gavage) it was 43.7%; in the data set on STZ-induced T2DM rats [1] (ADD VI group, 50 mg/kg daily by gavage) it was 45.2%. Further, the “glucose tolerance (OGTT, in words)” value in the data set on STZ-induced T2DM rats [2] was “increase glucose tolerance”. For the same molecule, the “islet targeting (in words)” value in data set [3] is on record as “well-defined islet targeting”. The “tissue Cmax order” value in data set [3] (AUC 0-8 order the same) was “liver>islets>lung>kidney>heart>spleen>brain”. Moreover, the “blood-brain barrier penetration (in words)” value in data set [3] (lowest concentration in brain tissue) is “does not readily penetrate the blood-brain barrier”.
